Experimental data as given in PubChem BioAssay AID2060888 (Molecular Pharmacology Branch, DTP, NCI, 2025).

Tested on: 695427-040-R-J1-PDC complex spheroid viability
Experiment: Anticancer human tumor 695427-040-R-J1-PDC patient-derived colon adenocarcinoma cell line growth inhibition [RAS]
Conditions: for IC50: curve of first compound; for viability, T/C: stronger effect = lower value; active = viability on the fitted dose curve at most 10% of control; inactive = the rest
Outline: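 Agents were tested in combination matrices in half-log decrements from a top concentration at or near clinical Cmax (10 microM if undetermined). Targets were multi-cell spheroids of tumour lines plus HUVEC and MSC stromal cells.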

[1] = second compound 0.000949 µM, first compound 0.0316 µM
[2] = second compound 0.000949 µM, first compound 0.1 µM
[3] = second compound 0.000949 µM, first compound 0.316 µM
[4] = second compound 0.000949 µM, first compound 1 µM
[5] = second compound 0.000949 µM, first compound 3.16 µM
[6] = second compound 0.000949 µM, first compound 10 µM
[7] = second compound 0.003 µM, first compound 0.0316 µM
[8] = second compound 0.003 µM, first compound 0.1 µM
[9] = second compound 0.003 µM, first compound 0.316 µM
[10] = second compound 0.003 µM, first compound 1 µM
[11] = second compound 0.003 µM, first compound 3.16 µM
[12] = second compound 0.003 µM, first compound 10 µM
[13] = second compound 0.00949 µM, first compound 0.0316 µM
[14] = second compound 0.00949 µM, first compound 0.1 µM
[15] = second compound 0.00949 µM, first compound 0.316 µM
[16] = second compound 0.00949 µM, first compound 1 µM
[17] = second compound 0.00949 µM, first compound 3.16 µM
[18] = second compound 0.00949 µM, first compound 10 µM
[19] = second compound 0.03 µM, first compound 0.0316 µM
[20] = second compound 0.03 µM, first compound 0.1 µM
[21] = second compound 0.03 µM, first compound 0.316 µM
[22] = second compound 0.03 µM, first compound 1 µM
[23] = second compound 0.03 µM, first compound 3.16 µM
[24] = second compound 0.03 µM, first compound 10 µM
[25] = second compound 0.0949 µM, first compound 0.0316 µM
[26] = second compound 0.0949 µM, first compound 0.1 µM
[27] = second compound 0.0949 µM, first compound 0.316 µM
[28] = second compound 0.0949 µM, first compound 1 µM
[29] = second compound 0.0949 µM, first compound 3.16 µM
[30] = second compound 0.0949 µM, first compound 10 µM
[31] = second compound 0.3 µM, first compound 0.0316 µM
[32] = second compound 0.3 µM, first compound 0.1 µM
[33] = second compound 0.3 µM, first compound 0.316 µM
[34] = second compound 0.3 µM, first compound 1 µM
[35] = second compound 0.3 µM, first compound 3.16 µM
[36] = second compound 0.3 µM, first compound 10 µM
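Note: viability read after seven days of drug exposure.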
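Throughout, for viability, T/C: 100% = DMSO vehicle control viability.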

CCC(CC)c1cc(NC2CCC(N)C2)n2nccc2n1 (stereo unspecified) + CCn1c(-c2cccnc2C(C)OC)c2c3cc(ccc31)N1CCOC(CC(NC(=O)C(C(C)C)N(C)C(=O)C3(F)CCN(C(=O)C#CC(C)(C)N(C)C)CC3)C(=O)N3CCCC(N3)C(=O)OCC(C)(C)C2)C1
1800 nM: IC50 (second compound 0.00949 µM)
1810 nM: IC50 (second compound 0.003 µM)
1460 nM: IC50 (second compound 0.3 µM)
1660 nM: IC50 (second compound 0.0949 µM)
1880 nM: IC50 (second compound 0.000949 µM)
active: viability, T/C [12] 9.28%
1900 nM: IC50 (second compound 0.03 µM)
inactive: viability, T/C [1] 82.4% | viability, T/C [2] 104% | viability, T/C [3] 100% | viability, T/C [4] 94.6% | viability, T/C [5] 13.2% | viability, T/C [6] 12.6% | viability, T/C [7] 106% | viability, T/C [8] 88.4% | viability, T/C [9] 100% | viability, T/C [10] 81.5% | viability, T/C [11] 20.3% | viability, T/C [13] 82.2% | viability, T/C [14] 82.4% | viability, T/C [15] 111% | viability, T/C [16] 87.9% | viability, T/C [17] 13.3% | viability, T/C [18] 10.4% | viability, T/C [19] 86.7% | viability, T/C [20] 90.8% | viability, T/C [21] 97.6% | viability, T/C [22] 90.5% | viability, T/C [23] 17.7% | viability, T/C [24] 12.2% | viability, T/C [25] 89.2% | viability, T/C [26] 83.1% | viability, T/C [27] 86.8% | viability, T/C [28] 78.8% | viability, T/C [29] 13.3% | viability, T/C [30] 11.5% | viability, T/C [31] 85.3% | viability, T/C [32] 77% | viability, T/C [33] 85.2% | viability, T/C [34] 68.3% | viability, T/C [35] 12.6% | viability, T/C [36] 11%

CC(Nc1ccc2c(c1)OCCn1cc(N3C(=O)OCC3C(F)F)nc1-2)C(N)=O (stereo unspecified) + CCn1c(-c2cccnc2C(C)OC)c2c3cc(ccc31)N1CCOC(CC(NC(=O)C(C(C)C)N(C)C(=O)C3(F)CCN(C(=O)C#CC(C)(C)N(C)C)CC3)C(=O)N3CCCC(N3)C(=O)OCC(C)(C)C2)C1
> 10000 nM: IC50 (second compound 0.000949 µM) | IC50 (second compound 0.00949 µM) | IC50 (second compound 0.03 µM) | IC50 (second compound 0.0949 µM) | IC50 (second compound 0.3 µM)
8530 nM: IC50 (second compound 0.003 µM)
inactive: viability, T/C [1] 80.8% | viability, T/C [2] 68.8% | viability, T/C [3] 68.7% | viability, T/C [4] 34.9% | viability, T/C [5] 80.1% | viability, T/C [6] 39.4% | viability, T/C [7] 95.4% | viability, T/C [8] 79.6% | viability, T/C [9] 62.1% | viability, T/C [10] 50.1% | viability, T/C [11] 86% | viability, T/C [12] 37.5% | viability, T/C [13] 103% | viability, T/C [14] 84.1% | viability, T/C [15] 72.3% | viability, T/C [16] 62.9% | viability, T/C [17] 81.9% | viability, T/C [18] 42.3% | viability, T/C [19] 91.8% | viability, T/C [20] 70.1% | viability, T/C [21] 59.9% | viability, T/C [22] 45.3% | viability, T/C [23] 89.3% | viability, T/C [24] 37.8% | viability, T/C [25] 71.8% | viability, T/C [26] 67.5% | viability, T/C [27] 52.6% | viability, T/C [28] 50.4% | viability, T/C [29] 100% | viability, T/C [30] 40.9% | viability, T/C [31] 69.6% | viability, T/C [32] 52% | viability, T/C [33] 70.8% | viability, T/C [34] 52.8% | viability, T/C [35] 69.1% | viability, T/C [36] 42.1%

O=C(c1ccc(F)c(F)c1Nc1ccc(I)cc1F)N1CC(O)([C@@H]2CCCCN2)C1 + CCn1c(-c2cc(N3CCN(C)CC3)cnc2C(C)OC)c2c3cc(ccc31)-c1csc(n1)CC(NC(=O)C1CC1C)C(=O)N1CCCC(N1)C(=O)OCC(C)(C)C2
43.1 nM: IC50 (second compound 0.003 µM)
26.5 nM: IC50 (second compound 0.00949 µM)
inactive: viability, T/C (second compound 0.000949 µM, first compound 0.00316 µM) 79.7% | viability, T/C (second compound 0.000949 µM, first compound 0.01 µM) 75.5% | viability, T/C [1] 65.4% | viability, T/C [2] 45.2% | viability, T/C [3] 18.3% | viability, T/C (second compound 0.003 µM, first compound 0.00316 µM) 91.8% | viability, T/C (second compound 0.003 µM, first compound 0.01 µM) 74.2% | viability, T/C [7] 53.8% | viability, T/C [8] 40% | viability, T/C [9] 14.5% | viability, T/C (second compound 0.00949 µM, first compound 0.00316 µM) 73.1% | viability, T/C (second compound 0.00949 µM, first compound 0.01 µM) 63.4% | viability, T/C [13] 45.9% | viability, T/C [14] 32.7% | viability, T/C [15] 11.4% | viability, T/C (second compound 0.03 µM, first compound 0.00316 µM) 57.8% | viability, T/C (second compound 0.03 µM, first compound 0.01 µM) 37.1% | viability, T/C [19] 28.5% | viability, T/C [20] 18.5% | viability, T/C [21] 8.58% | viability, T/C (second compound 0.0949 µM, first compound 0.00316 µM) 28.6% | viability, T/C (second compound 0.0949 µM, first compound 0.01 µM) 27.8% | viability, T/C [25] 15.5% | viability, T/C (second compound 0.3 µM, first compound 0.00316 µM) 23.2% | viability, T/C (second compound 0.3 µM, first compound 0.01 µM) 17.1% | viability, T/C [31] 11.6%
73.6 nM: IC50 (second compound 0.000949 µM)
4.98 nM: IC50 (second compound 0.03 µM)
< 3.16 nM: IC50 (second compound 0.0949 µM) | IC50 (second compound 0.3 µM)
active: viability, T/C [4] 6.04% | viability, T/C [10] 7.31% | viability, T/C [16] 7.1% | viability, T/C [22] 5.7% | viability, T/C [26] 7.38% | viability, T/C [27] 6.14% | viability, T/C [28] 4.07% | viability, T/C [32] 6.62% | viability, T/C [33] 6.7% | viability, T/C [34] 5.28%
